Measurements: patent US4443436A, “C-20-Modified macrolide derivatives of the macrolide antibiotics tylosin, desmycosin, macrocin, and lactenocin” (Eli Lilly and Company, priority 1982, dated 1984)
Values after ≈ are worked out from the molar mass of the structure shown. Like-named read-outs stand apart in the source and are kept apart here.

How the values were obtained:
[1] = tested on: Staphylococcus aureus X1.1; assay: MIC, standard agar-dilution assay, Staphylococcus aureus X1.1; type: cell-based
[2] = tested on: Staphylococcus aureus V41; assay: MIC, standard agar-dilution assay, Staphylococcus aureus V41; type: cell-based
[3] = tested on: Staphylococcus aureus X400; assay: MIC, standard agar-dilution assay, Staphylococcus aureus X400; type: cell-based
[4] = tested on: Staphylococcus aureus S13E; assay: MIC, standard agar-dilution assay, Staphylococcus aureus S13E; type: cell-based
[5] = tested on: Staphylococcus epidermidis EPI1; assay: MIC, standard agar-dilution assay, Staphylococcus epidermidis EPI1; type: cell-based
[6] = tested on: Staphylococcus epidermidis EPI2; assay: MIC, standard agar-dilution assay, Staphylococcus epidermidis EPI2; type: cell-based
[7] = tested on: Streptococcus pyogenes C203; assay: MIC, standard agar-dilution assay, Streptococcus pyogenes C203; type: cell-based
[8] = tested on: Streptococcus pneumoniae Park I; assay: microbe, parasite or virus in culture; type: cell-based
[9] = tested on: Streptococcus Group D X66; assay: MIC, standard agar-dilution assay, Streptococcus Group D X66; type: cell-based; conditions: Streptococcus Group D X66, agar dilution
[10] = tested on: Streptococcus Group 9960; assay: MIC, standard agar-dilution assay, Streptococcus Group 9960; type: cell-based; conditions: Streptococcus Group 9960, agar dilution
[11] = tested on: Haemophilus influenzae Holt; assay: MIC, standard agar-dilution assay, Haemophilus influenzae Holt; type: cell-based; conditions: Haemophilus influenzae Holt, ampicillin-sensitive strain
[12] = tested on: Haemophilus influenzae R252; assay: MIC, standard agar-dilution assay, Haemophilus influenzae R252; type: cell-based
[13] = tested on: Staphylococcus aureus; assay: MIC, broth-dilution microtiter test, Staphylococcus aureus; type: cell-based
Excerpt: (§1) The MIC's in Table X were obtained using conventional broth-dilution microtiter tests.

[14] = tested on: Streptococcus bovis 80; assay: MIC, broth-dilution microtiter test, Streptococcus bovis 80; type: cell-based; conditions: Streptococcus bovis 80, broth-dilution microtiter
Excerpt: as §1

[15] = tested on: Pasteurella multocida 17E; assay: MIC, broth-dilution microtiter test, Pasteurella multocida 17E; type: cell-based
Excerpt: as §1

[16] = tested on: Pasteurella multocida 60A; assay: MIC, broth-dilution microtiter test, Pasteurella multocida 60A; type: cell-based
Excerpt: as §1

[17] = tested on: Pasteurella hemolytica 22C; assay: MIC, broth-dilution microtiter test, Pasteurella hemolytica 22C; type: cell-based
Excerpt: as §1

[18] = tested on: Mycoplasma gallisepticum; assay: MIC, broth-dilution microtiter test, Mycoplasma gallisepticum; type: cell-based; conditions: Mycoplasma gallisepticum, broth-dilution microtiter
Excerpt: as §1

[19] = tested on: Mycoplasma synoviae; assay: MIC, broth-dilution microtiter test, Mycoplasma synoviae; type: cell-based
Excerpt: as §1

[20] = tested on: Mycoplasma hyorhinis; assay: MIC, broth-dilution microtiter test, Mycoplasma hyorhinis; type: cell-based; conditions: Mycoplasma hyorhinis, broth-dilution microtiter
Excerpt: as §1

[21] = tested on: Mycoplasma hyopneumoniae; assay: MIC, broth-dilution microtiter test, Mycoplasma hyopneumoniae; type: cell-based; conditions: Mycoplasma hyopneumoniae, broth-dilution microtiter
Excerpt: as §1

[22] = tested on: Streptococcus pyogenes C203; assay: In vivo protection of mice experimentally infected with S. pyogenes C203; conditions: mice, doses given 1 and 4 hours post-infection; for ED50: Streptococcus pyogenes
Description: The C-20 modified derivatives of this invention have shown in vivo antimicrobial activity against experimentally-induced infections in laboratory animals. When two doses of test compound were administered to mice experimentally infected with S. pyogenes C203, the activity observed was measured as an ED50 value [effective dose in mg/kg to protect 50% of the test animals: see Warren Wick, et al., J. Bacteriol. 81, 233-235 (1961)].

[23] = Staphylococcus aureus X1.1, agar dilution
[24] = Staphylococcus aureus V41, penicillin-resistant strain, agar dilution
[25] = Staphylococcus aureus X400, methicillin-resistant strain, agar dilution
[26] = Staphylococcus aureus S13E, agar dilution
[27] = Staphylococcus epidermidis EPI1, agar dilution
[28] = Staphylococcus epidermidis EPI2, agar dilution
[29] = Streptococcus pyogenes C203, agar dilution
[30] = Streptococcus pneumoniae Park I, agar dilution
[31] = Haemophilus influenzae R252, ampicillin-resistant strain, agar dilution
[32] = Pasteurella multocida 17E, bovine isolate, broth-dilution microtiter
[33] = Pasteurella multocida 60A, avian isolate, broth-dilution microtiter
[34] = Pasteurella hemolytica 22C, broth-dilution microtiter
[35] = Mycoplasma synoviae, broth-dilution microtiter

Q: How did the MIC [1, 23] turn out when `CCC1OC(=O)CC(O)C(C)C(OC2OC(C)C(O)C(N(C)C)C2O)C(CCOc2ccccc2)CC(C)C(=O)C=CC(C)=CC1COC1OC(C)C(O)C(O)C1OC` (stereo not drawn) [Compound 58, 20-DH-20-O-Phenyllactenocin] was run?
A: The MIC was 0.25 µg/mL (≈ 0.299 µM).

Q: What about the MIC [2, 24] of the same molecule?
A: The MIC was 0.25 µg/mL (≈ 0.299 µM).

Q: What about the MIC [3, 25] of the same molecule?
A: The MIC was 0.25 µg/mL (≈ 0.299 µM).

Q: What about the MIC [4, 26] of the same molecule?
A: The MIC was 0.25 µg/mL (≈ 0.299 µM).

Q: What about the MIC [5, 27] of the same molecule?
A: Its MIC is 0.25 µg/mL (≈ 0.299 µM).

Q: What about the MIC [6, 28] of the same molecule?
A: Its MIC is 0.25 µg/mL (≈ 0.299 µM).

Q: What about the MIC [7, 29] of the same molecule?
A: The MIC was 0.06 µg/mL (≈ 0.0718 µM).

Q: What about the MIC [8, 30] of the same molecule?
A: The MIC was 0.25 µg/mL (≈ 0.299 µM).

Q: What about the MIC [9] of the same molecule?
A: The MIC was 4 µg/mL (≈ 4.78 µM).

Q: And the MIC [10]?
A: The MIC was 8 µg/mL (≈ 9.57 µM).

Q: And the MIC ([11]; agar dilution)?
A: Its MIC is 32 µg/mL (≈ 38.3 µM).

Q: And the MIC [12, 31]?
A: Its MIC is 16 µg/mL (≈ 19.1 µM).

Q: What about the MIC ([13]; broth-dilution microtiter) of the same molecule?
A: The MIC was 0.39 µg/mL (≈ 0.466 µM).

Q: And the MIC [14]?
A: Its MIC is 1.56 µg/mL (≈ 1.87 µM).

Q: And the MIC [15, 32]?
A: Its MIC is 25 µg/mL (≈ 29.9 µM).

Q: What about the MIC [16, 33] of the same molecule?
A: Its MIC is 12.5 µg/mL (≈ 15 µM).

Q: And the MIC [17, 34]?
A: The MIC was 25 µg/mL (≈ 29.9 µM).

Q: What about the MIC [18] of the same molecule?
A: Its MIC is 0.78 µg/mL (≈ 0.933 µM).

Q: And the MIC [19, 35]?
A: Its MIC is 6.25 µg/mL (≈ 7.48 µM).

Q: And the MIC [20]?
A: Its MIC is 50 µg/mL (≈ 59.8 µM).

Q: And the MIC [21]?
A: The MIC was 6.25 µg/mL (≈ 7.48 µM).

Q: What about the “ED50, Oral” value ([22]; oral) of the same molecule?
A: Its value is 50 mg/kg × 2.

Q: What about the “ED50, Subcutaneous” value ([22]; subcutaneous) of the same molecule?
A: The value was 3.2 mg/kg × 2.

Q: How did the MIC ([1]; Staphylococcus aureus, X1.1) turn out when `CCC1OC(=O)CC(O)C(C)C(OC2OC(C)C(O)C(N(C)C)C2O)C(CCOC(C(F)(F)F)C(F)(F)F)CC(C)C(=O)C=CC(C)=CC1COC1OC(C)C(O)C(OC)C1OC` (stereo not drawn) [Compound 32, 20-DH-20-O-[2,2,2-trifluoro-1-(trifluoromethyl)ethyl]desmycosin] was run?
A: Its MIC is 0.5 µg/mL (≈ 0.541 µM).

Q: What about the MIC ([2]; Staphylococcus aureus, V41) of the same molecule?
A: Its MIC is 0.5 µg/mL (≈ 0.541 µM).

Q: What about the MIC ([3]; Staphylococcus aureus, X400) of the same molecule?
A: Its MIC is 0.5 µg/mL (≈ 0.541 µM).

Q: And the MIC ([4]; Staphylococcus aureus, S13E)?
A: Its MIC is 0.5 µg/mL (≈ 0.541 µM).

Q: And the MIC ([5]; Staphylococcus epidermidis, EPI1)?
A: Its MIC is 0.5 µg/mL (≈ 0.541 µM).

Q: And the MIC ([6]; Staphylococcus epidermidis, EPI2)?
A: The MIC was 0.25 µg/mL (≈ 0.271 µM).

Q: And the MIC ([7]; Streptococcus pyogenes, C203)?
A: Its MIC is 0.5 µg/mL (≈ 0.541 µM).

Q: And the MIC ([8]; Streptococcus pneumoniae)?
A: Its MIC is 4 µg/mL (≈ 4.33 µM).

Q: And the MIC ([9]; read-out: MIC)?
A: The MIC was 32 µg/mL (≈ 34.6 µM).

Q: What about the MIC ([10]; GROUP9960, read-out: MIC) of the same molecule?
A: The MIC was 32 µg/mL (≈ 34.6 µM).

Q: What about the MIC ([11]; read-out: MIC) of the same molecule?
A: Its MIC is 64 µg/mL (≈ 69.3 µM).

Q: And the MIC ([12]; Haemophilus influenzae, R252)?
A: Its MIC is 128 µg/mL (≈ 139 µM).

Q: What about the MIC [13] of the same molecule?
A: Its MIC is 0.78 µg/mL (≈ 0.844 µM).

Q: What about the MIC ([14]; Streptococcus equinus, read-out: MIC) of the same molecule?
A: Its MIC is 12.5 µg/mL (≈ 13.5 µM).

Q: What about the MIC ([15]; Pasteurella multocida, 17E) of the same molecule?
A: Its MIC is 50 µg/mL (≈ 54.1 µM).

Q: What about the MIC ([16]; Pasteurella multocida, 60A) of the same molecule?
A: The MIC was 50 µg/mL (≈ 54.1 µM).

Q: And the MIC ([17]; Pasteurella, 22C)?
A: The MIC was 50 µg/mL (≈ 54.1 µM).

Q: And the MIC ([18]; Mycoplasmoides gallisepticum, read-out: MIC)?
A: The MIC was 0.19 µg/mL (≈ 0.206 µM).

Q: What about the MIC ([19]; Mycoplasmopsis synoviae) of the same molecule?
A: The MIC was 1.56 µg/mL (≈ 1.69 µM).

Q: And the MIC ([20]; read-out: MIC)?
A: Its MIC is > 50 µg/mL.

Q: What about the MIC ([21]; Mesomycoplasma hyopneumoniae, read-out: MIC) of the same molecule?
A: The MIC was > 25 µg/mL.

Q: And the ED50 ([22]; C203, sc, subcutaneous, read-out: ED50, Subcutaneous)?
A: Its ED50 is > 10 mg/kg.

Q: What about the ED50 ([22]; C203, oral, read-out: ED50, Oral) of the same molecule?
A: Its ED50 is 25 mg/kg.

Q: How did the MIC [1, 23] turn out when `CCC1OC(=O)CC(O)C(C)C(OC2OC(C)C(O)C(N(C)C)C2O)C(CCOc2cccc(Oc3ccccc3)c2)CC(C)C(=O)C=CC(C)=CC1COC1OC(C)C(O)C(OC)C1OC` (stereo not drawn) [Compound 48, 20-DH-20-O-(m-Phenoxyphenyl)desmycosin] was run?
A: The MIC was 0.5 µg/mL (≈ 0.531 µM).

Q: And the MIC [2, 24]?
A: The MIC was 0.5 µg/mL (≈ 0.531 µM).

Q: What about the MIC [3, 25] of the same molecule?
A: The MIC was 0.5 µg/mL (≈ 0.531 µM).

Q: What about the MIC [4, 26] of the same molecule?
A: The MIC was 0.5 µg/mL (≈ 0.531 µM).

Q: And the MIC [5, 27]?
A: The MIC was 0.5 µg/mL (≈ 0.531 µM).

Q: And the MIC [6, 28]?
A: The MIC was 0.25 µg/mL (≈ 0.265 µM).

Q: What about the MIC [7, 29] of the same molecule?
A: The MIC was 0.25 µg/mL (≈ 0.265 µM).

Q: What about the MIC [8, 30] of the same molecule?
A: Its MIC is 0.25 µg/mL (≈ 0.265 µM).

Q: What about the MIC [9] of the same molecule?
A: Its MIC is 0.5 µg/mL (≈ 0.531 µM).

Q: What about the MIC [10] of the same molecule?
A: Its MIC is 1 µg/mL (≈ 1.06 µM).

Q: What about the MIC ([11]; agar dilution) of the same molecule?
A: The MIC was 16 µg/mL (≈ 17 µM).

Q: And the MIC [12, 31]?
A: Its MIC is 16 µg/mL (≈ 17 µM).

Q: What about the MIC ([13]; broth-dilution microtiter) of the same molecule?
A: The MIC was 0.78 µg/mL (≈ 0.828 µM).

Q: And the MIC [14]?
A: Its MIC is 0.09 µg/mL (≈ 0.0955 µM).

Q: And the MIC [15, 32]?
A: Its MIC is 25 µg/mL (≈ 26.5 µM).

Q: What about the MIC [16, 33] of the same molecule?
A: The MIC was 25 µg/mL (≈ 26.5 µM).

Q: What about the MIC [17, 34] of the same molecule?
A: The MIC was 25 µg/mL (≈ 26.5 µM).

Q: What about the MIC [18] of the same molecule?
A: Its MIC is < 0.05 µg/mL.

Q: And the MIC [19, 35]?
A: Its MIC is 0.19 µg/mL (≈ 0.202 µM).

Q: And the MIC [20]?
A: The MIC was 12.5 µg/mL (≈ 13.3 µM).

Q: What about the MIC [21] of the same molecule?
A: The MIC was 1.56 µg/mL (≈ 1.66 µM).

Q: What about the “ED50, Oral” value ([22]; oral) of the same molecule?
A: Its value is 35 mg/kg × 2.

Q: What about the “ED50, Subcutaneous” value ([22]; subcutaneous) of the same molecule?
A: The value was > 10 mg/kg × 2.
